The results in this text go back to US12215112B2, “CD151 inhibitors” (ESFAM BIOTECH PTY LTD, priority 2020, dated 2025).

This assay has as its system PC3 cells. The assay can be described thus: xCELLigence RTCA real-time cell invasion assay (CIM plate, Matrigel) on PC3 prostate cancer cells. In kind it is cell-based. As to conditions: Homo sapiens, PC-3, compound 25 uM to 1 uM, cell index monitored for 72 hours, four-parameter dose-response curve, read-out: IC50, Effect of compounds on the invention on prostate cancer cells. The procedure: The media antibiotics and serum were purchased from Invitrogen (Life Technologies). PC3 cells were purchased from ATCC (Granville, NSW, Australia). PC3 cells were expanded in cell culture T75 flasks with vented cap and then preserved in low passage number. The medium used for PC3 cells was RPMI (GlutaMAX) supplemented with 10% FCS and 1% penicillin/streptomycin (culture media). The cells were maintained at 37° C. in a humidified 95% (v/v) air/5% (v/v) CO2 environment and were grown up to 80% confluence.
XCELLigence® real-time cell analysis (RTCA) instrument (ACEA Biosciences), 16-well ACEA CIM-Plates, 16-well ACEA E-Plat and assembly tool were purchased from ELITechGroup empowering IVD (Braeside, Australia). The Matrigel was purchased from Corning (Australia).
To measure cell invasion under compound treatment the upper chamber of the CIM plate was coated with 5% Matrigel diluted in SF RPMI (20 μl) and incubated in a 37° C. tissue culture incubator for four hours. Using the assembly tool to support the chambers the lower chamber was filled with (160 μl) of culture media containing the compound in specific concertation from 25 uM to 1 uM and two controls (DMSO 0.1% and ESFAM 4C 10 uM) (see the schematic in FIG. 1). Once the upper chamber was placed on the top of the lower chamber it was loaded with (40 μl) serum-free (SF) RPMI containing the compound as previously stated. After one hour calibration in 37° C., plates were placed into the xCELLigence station, and the base-line electric impedance was measured to confirm that all wells and connections were working properly. In case of connection problem, the software automatically informs the researcher about the nature of the problem in the message section. Subsequently cells were trypsinized and upon harvesting and counting they were diluted in SF RPMI to desired density (3×10^4) and seeded (100 μl) in the wells. After 30 minutes of incubation in room-temperature to allow cell attachment the plates were loaded in the xCELLigence RTCA DP machine. The cell invasion was monitored in real-time for the duration of 72 hours. […]
The xCELLigence system automatically monitored the electrical impedance value of each well and expressed as a cell index (CI) value for the duration of 72 hours. The data for treatments was automatically grouped as the mean±standard deviation. The software version used in these experiments is 1.2.1. The electronic record of the experimental data is automatically saved in file that cannot be altered or changed by the researcher.
Statistical analysis was performed using Microsoft® Office EXCEL and GraphPad Prism 7. The IC50 was calculated from the four-parameter dose-response curve (log(inhibitor) vs. response-variable slopes). Where the row-data was inserted in GraphPad Prism 7 (Dose response x-log(dose)) and analysed for XY nonlinear regression (curve fit), dose response-inhibition, log(inhibitor) vs response variable slope (four parameters). For the IC90 calculation the log(IC50)=log(IC90)-(1/HillSlope)*log(9) equation was used in EXCEL based on the raw data extracted from xCELLigence system and the dose-response curve.
The IC50 is the concentration at which inhibition is half-maximal. Regarding `CC(C)(C)c1c(C(=O)Nc2cccc(O)c2)nn2c(-c3cn[nH]c3)cc(N3Cc4ccccc4C3)nc12` [Cmpd 85], the 50% inhibitory concentration (IC50) worked out at 6.51 µM.
The figure for `CN(Cc1ccccc1)c1cc(-c2cn[nH]c2)n2nc(C(=O)Nc3cccc(O)c3)cc2n1` [Compound 1, 5-(benzyl(methyl)amino)-N-(3-hydroxyphenyl)-7-(1H-pyrazol-4-yl)pyrazolo[1,5-a]pyrimidine-2-carboxamide] is 6.9 µM; for `CN(Cc1ccccc1)c1cc(-c2cn[nH]c2)n2nc(C(N)=O)cc2n1` [Compound 2, 5-(benzyl(methyl)amino)-7-(1H-pyrazol-4-yl)pyrazolo[1,5-a]pyrimidine-2-carboxamide] it is 16.9 µM.
The figure for `CN(Cc1ccccc1)c1cc(-c2cn[nH]c2)n2nc(C(=O)NCc3ccccc3)cc2n1` [Compound 3, N-benzyl-5-(benzyl(methyl)amino)-7-(1H-pyrazol-4-yl)pyrazolo[1,5-a]pyrimidine-2-carboxamide] is 11.9 µM; for `CN(Cc1ccccc1)c1cc(-c2cn[nH]c2)n2nc(C(=O)Nc3ccc(O)cc3)cc2n1` [Compound 4, 5-(benzyl(methyl)amino)-N-(4-hydroxyphenyl)-7-(1H-pyrazol-4-yl)pyrazolo[1,5-a]pyrimidine-2-carboxamide] it is 0.81 µM.
The figure for `COc1cccc(NC(=O)c2cc3nc(N(C)Cc4ccccc4)cc(-c4cn[nH]c4)n3n2)c1` [Compound 5, 5-(benzyl(methyl)amino)-N-(3-methoxyphenyl)-7-(1H-pyrazol-4-yl)pyrazolo[1,5-a]pyrimidine-2-carboxamide] is 1.2 µM; for `CN(Cc1ccccc1)c1cc(-c2cn[nH]c2)n2nc(C(=O)Nc3cccnc3)cc2n1` [Compound 6, 5-(benzyl(methyl)amino)-7-(1H-pyrazol-4-yl)-N-(pyridin-3-yl)pyrazolo[1,5-a]pyrimidine-2-carboxamide] it is 11.7 µM; for `CN(Cc1ccccc1)c1cc(-c2cn[nH]c2)n2nc(C(=O)Nc3ccncc3)cc2n1` [Compound 7, 5-(benzyl(methyl)amino)-7-(1H-pyrazol-4-yl)-N-(pyridin-4-yl)pyrazolo[1,5-a]pyrimidine-2-carboxamide] it is 9.49 µM.
On to `COc1cc(NC(=O)c2cc3nc(N(C)Cc4ccccc4)cc(-c4cn[nH]c4)n3n2)ccn1` [Compound 8, 5-(benzyl(methyl)amino)-N-(2-methoxypyridin-4-yl)-7-(1H-pyrazol-4-yl)pyrazolo[1,5-a]pyrimidine-2-carboxamide], for which the concentration for half-maximal inhibition (IC50) amounted to 5.2 µM.
The figure for `COc1cc(NC(=O)c2cc3nc(N(C)Cc4ccccc4)cc(-c4cn[nH]c4)n3n2)cc(OC)c1` [Compound 9, 5-(benzyl(methyl)amino)-N-(3,5-dimethoxyphenyl)-7-(1H-pyrazol-4-yl)pyrazolo[1,5-a]pyrimidine-2-carboxamide] is 4.28 µM.
The figure for `Cc1noc(C)c1NC(=O)c1cc2nc(N(C)Cc3ccccc3)cc(-c3cn[nH]c3)n2n1` [Compound 10, 5-(benzyl(methyl)amino)-N-(3,5-dimethylisoxazol-4-yl)-7-(1H-pyrazol-4-yl)pyrazolo[1,5-a]pyrimidine-2-carboxamide] is 3.71 µM; for `CN(Cc1ccccc1)c1cc(-c2cn[nH]c2)n2nc(C(=O)Nc3cn[nH]c3)cc2n1` [Compound 11, 5-(benzyl(methyl)amino)-N,7-di(1H-pyrazol-4-yl)pyrazolo[1,5-a]pyrimidine-2-carboxamide] it is 9.71 µM.
The figure for `CN(Cc1ccccc1)c1cc(-c2cn[nH]c2)n2nc(C(=O)Nc3ccc(C#N)cc3)cc2n1` [Compound 12, 5-(benzyl(methyl)amino)-N-(4-cyanophenyl)-7-(1H-pyrazol-4-yl)pyrazolo[1,5-a]pyrimidine-2-carboxamide] is 6.64 µM; for `CN(Cc1ccccc1)c1cc(-c2cn[nH]c2)n2nc(C(=O)Nc3cccc(C#N)c3)cc2n1` [Compound 13, 5-(benzyl(methyl)amino)-N-(3-cyanophenyl)-7-(1H-pyrazol-4-yl)pyrazolo[1,5-a]pyrimidine-2-carboxamide] it is 4.71 µM.
Regarding `COc1cccc(NC(=O)c2cc3nc(N(C)[C@@H](C)c4ccccc4)cc(-c4cn[nH]c4)n3n2)c1` [Compound 14, (S)—N-(3-methoxyphenyl)-5-(methyl(1-phenylethyl)amino)-7-(1H-pyrazol-4-yl)pyrazolo[1,5-a]pyrimidine-2-carboxamide], the IC50 stood at 1.96 µM.
The figure for `C[C@@H](c1ccccc1)N(C)c1cc(-c2cn[nH]c2)n2nc(C(=O)Nc3cccc(O)c3)cc2n1` [Compound 15, (S)—N-(3-hydroxyphenyl)-5-(methyl(1-phenylethyl)amino)-7-(1H-pyrazol-4-yl)pyrazolo[1,5-a]pyrimidine-2-carboxamide] is 1.02 µM; for `C[C@@H](c1ccccc1)N(C)c1cc(-c2cn[nH]c2)n2nc(C(=O)Nc3ccccc3)cc2n1` [Compound 16, (S)-5-(methyl(1-phenylethyl)amino)-N-phenyl-7-(1H-pyrazol-4-yl)pyrazolo[1,5-a]pyrimidine-2-carboxamide] it is 150 µM.
Take `C[C@@H](c1ccccc1)N(C)c1cc(-c2cn[nH]c2)n2nc(C(N)=O)cc2n1` [Compound 17, (S)-5-(methyl(1-phenylethyl)amino)-7-(1H-pyrazol-4-yl)pyrazolo[1,5-a]pyrimidine-2-carboxamide]: the IC50 came out at 9.67 µM.
The figure for `CC(C)Oc1cccc(NC(=O)c2cc3nc(N(C)Cc4ccccc4)cc(-c4cn[nH]c4)n3n2)c1` [Compound 18, 5-(benzyl(methyl)amino)-N-(3-isopropoxyphenyl)-7-(1H-pyrazol-4-yl)pyrazolo[1,5-a]pyrimidine-2-carboxamide] is 7.95 µM; for `CN(Cc1ccccc1)c1cc(-c2cn[nH]c2)n2nc(C(=O)Nc3cccc(OC(F)F)c3)cc2n1` [Compound 19, 5-(benzyl(methyl)amino)-N-(3-(difluoromethoxy)phenyl)-7-(1H-pyrazol-4-yl)pyrazolo[1,5-a]pyrimidine-2-carboxamide] it is 12.8 µM; for `CN(C)c1cccc(NC(=O)c2cc3nc(N(C)Cc4ccccc4)cc(-c4cn[nH]c4)n3n2)c1` [Compound 20, 5-(benzyl(methyl)amino)-N-(3-(dimethylamino)phenyl)-7-(1H-pyrazol-4-yl)pyrazolo[1,5-a]pyrimidine-2-carboxamide] it is 3.56 µM.
The figure for `CN1CCN(c2cccc(NC(=O)c3cc4nc(N(C)Cc5ccccc5)cc(-c5cn[nH]c5)n4n3)c2)CC1` [Compound 22, 5-(benzyl(methyl)amino)-N-(3-(4-methylpiperazin-1-yl)phenyl)-7-(1H-pyrazol-4-yl)pyrazolo[1,5-a]pyrimidine-2-carboxamide] is 3.71 µM; for `O=C(Nc1ccccc1)c1cc2nc(N3Cc4ccccc4C3)cc(-c3cn[nH]c3)n2n1` [Compound 23, 5-(isoindolin-2-yl)-N-phenyl-7-(1H-pyrazol-4-yl)pyrazolo[1,5-a]pyrimidine-2-carboxamide] it is 2.83 µM.
The figure for `O=C(Nc1cccc(O)c1)c1cc2nc(N3Cc4ccccc4C3)cc(-c3cn[nH]c3)n2n1` [Compound 24, N-(3-hydroxyphenyl)-5-(isoindolin-2-yl)-7-(1H-pyrazol-4-yl)pyrazolo[1,5-a]pyrimidine-2-carboxamide] is 1.42 µM.
Take `COc1cccc(NC(=O)c2cc3nc(N4Cc5ccccc5C4)cc(-c4cn[nH]c4)n3n2)c1` [Compound 25, 5-(isoindolin-2-yl)-N-(3-methoxyphenyl)-7-(1H-pyrazol-4-yl)pyrazolo[1,5-a]pyrimidine-2-carboxamide]: the IC50 was found to be 2.43 µM.
